From US5378716A, “Pyrazol-1-yl phenoxyacetic acid compounds which have useful pharmaceutical utility” (Ono Pharmaceutical Co., Ltd., priority 1992, dated 1995)
pIC50: −log10 of the molar value.

Key:
[1] = target: T1, PGI2 receptor in the human blood platelet membrane fraction (Homo sapiens, UniProt P43119); test: Inhibitory activity on binding of [^3 H]-iloprost to PGI2 receptor in the human blood platelet membrane fraction; conditions: 10 nM [^3 H]-iloprost, human blood platelet membrane fraction (0.3 mg protein), pH 7.4, 24° C., 30 min; read-out: IC50, inhibition of [^3 H]-iloprost binding to PGI2 receptor
T1 construct: human blood platelet membrane fraction (0.3 mg protein) was added; from tissue; host or cells: human blood platelets (membrane fraction)
T1 sequence (P43119 whole entry): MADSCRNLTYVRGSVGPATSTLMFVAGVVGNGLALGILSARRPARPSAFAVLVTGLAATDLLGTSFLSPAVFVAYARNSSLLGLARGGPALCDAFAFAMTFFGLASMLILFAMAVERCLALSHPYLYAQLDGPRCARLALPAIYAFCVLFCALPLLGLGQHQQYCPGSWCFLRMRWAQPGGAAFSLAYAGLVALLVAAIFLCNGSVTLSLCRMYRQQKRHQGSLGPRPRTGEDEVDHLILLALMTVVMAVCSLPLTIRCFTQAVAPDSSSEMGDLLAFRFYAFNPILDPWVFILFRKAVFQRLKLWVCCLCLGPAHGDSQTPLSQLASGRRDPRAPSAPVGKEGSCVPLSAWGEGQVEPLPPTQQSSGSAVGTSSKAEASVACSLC
Protocol: i) Inhibitory activity on binding of [^3 H]-iloprost to PGI2 receptor in the human blood platelet membrane fraction
50 mM Tris-HCl buffer (pH 7.4) containing 15 mM MgCl2, 5 mM EDTA and 10 nM [^3 H]-iloprost were used as reaction medium. To 0.2 ml of the reaction medium, human blood platelet membrane fraction (0.3 mg protein) was added with or without a test compound. The mixture was incubated at 24° C. for 30 min. After incubation, 4 ml of ice-cold 10 mM Tris-HCl buffer (pH 7.4) was added to the reaction mixture, the mixture was filtered through Whatman GF/B glass fiber filter and washed 4 times with 4 ml of ice-cold 10 mM Tri-HCl buffer (pH 7.4) to separate bound and free [^3 H]-iloprost. After washing, the filter was dried and radioactivity was counted. Non-specific binding was obtained by performing parallel binding experiments in the presence of 10 μM non-labelled iloprost. Specific binding was calculated by subtracting the non-specific binding from the total binding.
The inhibitory effect of a test compound was calculated from the following equation.
The percentage of inhibition (%)=100-(B1 /B0 ×100)
B1 :specific [^3 H]-iloprost binding in the presence of a test compound
B0 :specific [^3 H]-iloprost binding in the absence of a test compound

[2] = tested on: human blood platelet aggregation; test: Inhibitory effect on human blood platelet aggregation (ADP-induced, platelet-rich plasma); type: cell-based; conditions: human PRP (5×10^5 platelets/mm^3), compound added 1 minute prior to ADP (4 μm), read-out: IC50, inhibition of human blood platelet aggregation
Protocol: ii) Inhibitory effect on human blood platelet aggregation
Platelet-rich plasma (PRP) was prepared from human blood (5×10^5 platelets/mm^3) and a test compound was added to PRP 1 minute prior to the addition of ADP (4 μm). The aggregation was monitored using a platelet aggregometer (NBS HEMA TRACER 601, Niko Bioscience, Japan).

pIC50 [1]	pIC50 [2]	Compound
5.70	5.51	O=C(O)COc1cccc(CCCC(=O)NC(c2ccccc2)c2ccccc2)c1 [8(n), 3-(3-Diphenylmethylaminocarbonylpropyl)phenoxyacetic acid]
6.11	5.49	Cc1c(/C=C/Cn2cc(C(c3ccccc3)c3ccccc3)cn2)cccc1OCC(=O)O [17(s), 2-Methyl-3-[3-(4-diphenylmethylpyrazol-1-yl)-1-propenyl]phenoxyaceticacid]
5.70	–	O=C(O)COc1ccccc1CCCCn1cc(C(c2ccccc2)c2cccnc2)cn1 (stereo not drawn) [17(n)]
5.52	–	CCCC(CCCc1cccc(OCC(=O)O)c1)NOC(c1ccccc1)c1ccccc1 (stereo not drawn) [Example 6, 3-(4-Diphenylmethyloxyaminoheptyl)phenoxyacetic acid]
6.92	6.80	O=C(O)COc1cccc(CCCc2cc(C(c3ccccc3)c3ccccc3)on2)c1 [Example 19, 3-[3-(5-diphenylmethylisoxazol-3-yl)propyl]phenoxyacetic acid]
6.82	6.38	O=C(O)COc1cccc(CCCn2cc(C(c3ccccc3)c3ccccc3)cn2)c1 [Example 17, 3-[3-(4-diphenylmethylpyrazol-1-yl)propyl]phenoxyacetic acid]
5.30	–	O=C(O)COc1cccc(CCCON=C(c2ccccc2)c2cccnc2)c1 [17(x), 3-[3-[1-Phenyl-1-(3-pyridyl)methylideneaminooxy]propyl]phenoxyacetic acid]
5.36	–	O=C(O)COc1cccc(CCCc2nc(C(c3ccccc3)c3ccccc3)no2)c1 [Example 21, 3-[3-(3-diphenylmethyl-1,2,4-oxadiazol-5-yl)propyl]phenoxyacetic acid]
6.66	–	O=C(O)COc1cccc(/C=C/Cn2cc(C(c3ccccc3)c3ccccc3)cn2)c1 [17(i), 3-[3-(4-Diphenylmethylpyrazol-1-yl)-1-propenyl]phenoxyacetic acid]
5.80	5.43	CCCC(CCCc1cccc(OCC(=O)O)c1)=NOC(c1ccccc1)c1ccccc1 [Example 4, 3-(4-Diphenylmethyloxyiminoheptyl)phenoxyacetic acid]
6.44	6.62	O=C(O)COc1cccc(CCCn2ncc(C(c3ccccc3)c3ccccc3)n2)c1 [17(b), 3-[3-(4-Diphenylmethyl-1,2,3-triazol-2-yl)propyl]phenoxyacetic acid]
5.40	–	COC(=O)COc1cccc(CCCC(=O)OC(c2ccccc2)c2ccccc2)c1 [Example 15, Methyl 3-(3-diphenylmethyloxycarbonylpropyl)phenoxyacetate]
6.34	6.01	O=C(O)COc1cccc(CCCC(=O)NN(c2ccccc2)c2ccccc2)c1 [8(o), 3-[3-[(N,N-Diphenylamino)aminocarbonyl]propyl]phenoxyacetic acid]
5.82	–	O=C(O)COc1cccc(CCCC(=O)N(Cc2ccccc2)Cc2ccccc2)c1 [8(l), 3-[3-(N,N-Dibenzylaminocarbonyl)propyl]phenoxyacetic acid]
6.57	6.33	O=C(O)COc1cccc(CCCn2cc(C(c3ccccc3)c3ccccc3)nn2)c1 [17(c), 3-[3-(4-Diphenylmethyl-1,2,3-triazol-1-yl)propyl]phenoxyacetic acid]
5.82	6.43	O=C(O)COc1cccc(CCCc2noc(C(c3ccccc3)c3ccccc3)n2)c1 [Example 23, 3-[3-(5-diphenylmethyl-1,2,4-oxadiazol-3-yl)propyl]phenoxyacetic acid]
6.59	6.39	O=C(O)COc1cccc(OCCn2cc(C(c3ccccc3)c3ccccc3)cn2)c1 [17(cc), 3-[2-(4-Diphenylmethylpyrazol-1-yl)ethyloxy]phenoxyacetic acid]
5.32	–	O=C(O)COc1cccc(CCCC=NOC(c2ccccc2)c2ccccc2)c1 [Example 2, 3-(4-Diphenylmethyloxyiminobutyl)phenoxyacetic acid]
5.89	5.30	O=C(O)COc1cccc(CCCCOC(c2ccccc2)c2ccccc2)c1 [Example 12, 3-(4-Diphenylmethyloxybutyl)phenoxyacetic acid]
